The subject of experiment [1] is Male Rj: Wistar (Han) rats. The experiment is described as follows: Vogel Conflict Test in the rat. The conditions noted are these: 64 mg/kg p.o., 60 minutes before the test; p<0.01. It counts as in vivo. The method, then:
Rufinamide was dispersed in 0.5% methylcellulose (MC) in distilled water. Vehicle was dispersed in 0.5% MC in distilled water. Clobazam was dispersed in 0.5% MC in distilled water. Methylcellulose (Sigma), batch n° 62K0144, white powder. Distilled water (Laboratoire Aguettant, sterile water for injectable preparation). All substances were stored in a dry, dark, controlled access area and maintained at a controlled ambient temperature (+18° C.). The vehicle suspensions were stored at +4° C.
The vehicle, test substance and reference substance were administered in a volume of 5 ml/kg body weight.
Male Rj: Wistar (Han) rats, 171-205 g body weight range were used. They were supplied by Elevage Janvier, 53940 Le Genest-Saint-Isle, France.
Animals were delivered to the laboratory at least 5 days before the experiment, during which time they were acclimatized to the laboratory conditions. They were housed in groups of 5 in macrolon cages (41×25×14 cm) on wood litter (Litalabo—SPPS, 95100 Argenteuil, France) with free access to food (Code 113-SAFE, 91360 Epinay-sur-Orge, France) and water until
Results in grouped data tables are presented as means followed by a ± sign and the standard error of the mean (s.e.m.) on the basis of 15 animals per group and as percent change from control. The statistical tests used are indicated with the method. All statistical calculations were performed using commercial software (Microsoft Excel®, GB Stat version 6.5), and verified test by test according to Porsolt & Partners Pharmacology's standardized internal procedures. All differences were considered statistically significant when the null hypothesis could be rejected at the risk α=0.05 or less.
Rats were deprived of water for 48 hours and were then placed individually into a transparent Plexiglas enclosure (15×32×34 cm) with a floor consisting of stainless steel bars (0.4 cm) spaced 1 cm apart. The back wall of the enclosure was made of opaque Plexiglass thereby concealing the observer from the experimental animal. In the centre of the opposite wall, 5 cm above the floor, a metal water spout protruded into the cage and was connected to one pole of a shock generator (Apelex: Type 011346). The other pole of the shock generator was connected to the metal grid floor.
The rat was left to explore until it found the water spout. Then, every time it drank, it received a slight electric shock (1.7 mA, 1 sec.) 2 seconds after it started lapping. The number of shocks received (punished drinkings) was counted during a 3 minute period.
15 rats were studied per group. The test was performed blind.
rufinamide was evaluated at 25, 50, 100 and 200 mg/kg, administered p.o. 60 minutes before the test, and compared with a vehicle control group.
Clobazam (64 mg/kg), administered under the same experimental conditions, was used as reference substance.
Data were analyzed by comparing treated groups with vehicle control using unpaired Student's t tests.

For experiment [2] the following is noted: small scale placebo controlled study; cited from earlier work.
Experiment [3] has as its system male OF-1 mice. The note with it: general statement, no dose given; cited from earlier work.
The subject of experiment [4] is male OF-1 “intruder” mice. In words: Intruder test (social withdrawal of intruder mice). The note with it: 1/3/10 mg/kg oral. The experiment is classed as in vivo, mouse. Here is the method:
Rufinamide, a Na-channel blocker and anti-epileptic agent, and carbamazepine, an anticonvulsant employed to treat bipolar disorder, were given to male OF-1 “intruder” in oral-doses of 1/3/10 mg/kg, 1 hr before the animals were confronted with an individually-housed, aggressive, male OF-1 resident mouse. […] This increase in social investigation (sociotropic effect) was accompanied by a decrease in the frequency and duration of defensive ambivalence probably through competitive inhibition. No signs of motor stimulation were detected.
The Intruder test duplicates a territorial encounter between a territory holder (aggressive male) and a subordinate “intruder” mouse. […] In this test the intruders receive the treatment whereas the residents remain untreated. (Dixon, A. K., Huber, C., Lowe, D. J. Clin. Psychiatry. 55 (9) Suppl B, 4-7 (1994)). For purposes of this study, rufinamide and carbamazepine were given orally to intruder mice 1 hr before being introduced singly to aggressive residents using doses of ⅓ and 10 mg/kg.
Over 60 ethological elements describing the social and non-social behaviour of mice based on the ethogram originally proposed by Grant and Mackintosh (Grant, E. C. Mackintosh, J. H. Behaviour 21: 246-259 (1963) ) and classified according to 9 behavioural categories (Dixon, A. K., Huber, C., Fisch, H. U. Adv. Study. Behaviour. 19: 171-204 (1990)) form the rodent ethogram as used in this test (FIG. 3).

The subject of experiment [5] is male OF-1 “intruder” mice. The note with it: earlier work (Dixon et al. 1994); cited from earlier work.
Experiment [6] deals with male OF-1 mice. In words: half-enclosed platform (HEP) test. It counts as in vivo, mouse. From the text: Rufinamide and carbamazepine were compared in the half-enclosed platform (HEP) test. The test determines how drugs affect the exploratory behaviour of a mouse placed upon a novel, half-enclosed platform and gives information as to whether a drug is a stimulant, depressant or disinhibitory as with, for example the benzodiazepines which increase exploration of the platform. It is also useful for determining duration of action and dose-findings studies. The HEP is a further development of the simple elevated platform used by Kaesermann to assess anxiolytic properties of drugs (Ref. Käsermann H. P. (1986) Psychopharmacol. 89:31-37). In this study carbamazepine and rufinamide were tested in the same dose ranges i.e. 0.32/1/3.2 and 10 mg/kg p.o. of each were given to male OF-1 mice 1 hr before testing.
The ethogram used consists of 9 elements of exploratory behaviour two of which involve static postures i.e. immobility and stretched attend posture, the latter being an ambivalent element indicative of approach-avoidance conflict. These elements are immediately spontaneous and are not induced by either training or punishment procedures. Upright postures which are posturally demanding are useful to detect muscle relaxation e.g. rearing (FIG. 10).

Experiment [7] concerns “intruder” rat. The note with it: background statement on anxiolytic compounds; cited from earlier work.

On to `CN1C(=O)CC(=O)N(c2ccccc2)c2cc(Cl)ccc21` [Clobazam], for which the “number of shocks received (punished drinking), change vs vehicle control” value in experiment [1] is “+64%”.

For `Nc1nnc(-c2cccc(Cl)c2Cl)c(N)n1` [Lamotrigine], in experiment [2], the “efficacy in treating post-traumatic stress disorder” value is reported as “some efficacy”.

As to `CC(N)Cc1ccccc1` (stereo not shown) [amphetamine], the “behavioural disinhibition in the HEP test” value in experiment [3] is given as “not”.

For `NC(=O)N1c2ccccc2C=Cc2ccccc21` [carbamazepine], the “non-social (NS) behaviour, frequency” value in experiment [4] (1 hr before 6 minute encounter) is recorded as “did not change”. Besides, the “social investigation (SI)” value in experiment [4] (1 hr before 6 minute encounter, frequency and duration) was “dose-related increase”. In experiment [4] (1 hr before encounter), the defensive ambivalence result is recorded as “reduced but, because of large variation did not attain significance”; the “overall social contact (SIM): social investigation combined with mating behaviour” value is “preserved the clear sociotropic action”; the static-flight elements result was “dose-related reduction persisted but also did not attain significance”; the “total number of ethological elements performed in the 6 minute encounter” value is “did not change”. For the same compound, the “social withdrawal in the Intruder test” value in experiment [5] was “reverses social withdrawal”. Also, the “exploratory activity (Sap,Go) in the open half of the platform” value in experiment [6] (0.32-10 mg/kg p.o., not attaining statistical significance) is recorded as “general tendency for increased exploratory activity”. For the same compound, the overall ethological profile result in experiment [6] (0.32/1/3.2 and 10 mg/kg p.o., 1 hr before testing) is “No major changes in behaviour occurred”. The “elements of stationary activity” value in experiment [6] (at 10 mg/kg p.o.) was “significant decrease”. Moreover, the “time spent in forward locomotion (Go) in the enclosed half” value in experiment [6] (at 3.2 and 10 mg/kg p.o.) was “significant shortening”.

As for `CN1C(=O)CN=C(c2ccccc2)c2cc(Cl)ccc21` [diazepam], in experiment [3], the “behavioural disinhibition in the HEP test” value was “demonstrable”. For the same compound, the “intruder's fear and tendency to scrutinize the resident partner” value in experiment [7] was “reduce the intruder's fear and to increase its tendency to scrutinize the resident partner”.

Values taken from patent US20090054414A1, “Rufinamide for the Treatment of Post-Traumatic Stress Disorder” (SYNOSIA THERAPEUTICS, priority 2007, published 2009).
